This is an account of results in patent US20240173307A1, “MODULATORS OF THE INTEGRATED STRESS PATHWAY” (Calico Life Sciences LLC, priority 2017, published 2024).

This experiment concerns HEK293T cells carrying the ATF4 luciferase reporter. Put plainly: ATF4-Luc assay (in vitro model of vanishing white matter disease). The conditions noted are these: Homo sapiens, HEK-293T, 1 μg/mL tunicamycin, 7 hours. The experiment is classed as cell-based. As for the experimental part:
In order to test exemplary compounds of the invention in a cellular context, a stable VWMD cell line was first constructed. The ATF4 reporter was prepared by fusing the human full-length ATF4 5′-UTR (NCBI Accession No. BCO22088.2) in front of the firefly luciferase (FLuc) coding sequence lacking the initiator methionine as described in Sidrauski et al (eLife 2013). The construct was used to produce recombinant retroviruses using standard methods and the resulting viral supernatant was used to transduce HEK293T cells, which were then subsequently selected with puromycin to generate a stable cell line.
HEK293T cells carrying the ATF4 luciferase reporter were plated on polylysine coated 384-well plates (Greiner Bio-one) at 30,000 cells per well. Cells were treated the next day with 1 μg/mL tunicamycin and 200 nM of a compound of Formula (I) for 7 hours. Luminescence was measured using One Glo (Promega) as specified by the manufacturer. Cells were maintained in DMEM with L-glutamine supplemented with 10% heat-inactivated FBS (Gibco) and Antibiotic-Antimycotic solution (Gibco).
Table 2 below summarizes the EC50 data obtained using the ATF4-Luc assay for exemplary compounds of the invention.

SMILES strings stand for the structures. Where only a bound is given, the exact number is not on record here.

As to `O=C(COc1ccc2c(c1)OC(F)(F)O2)NC12CC(C(=O)Nc3ccc(OC(F)(F)F)cn3)(C1)C2` [Compound 294, 3-{2-[(2,2-difluoro-2H-1,3-benzodioxol-5-yl)oxy]acetamido}-N-[5-(trifluoromethoxy)pyridin-2-yl]bicyclo[1.1.1]pentane-1-carboxamide], the half-maximal effective concentration (EC50) was below 250 nM.

Turning to `O=C(COc1ccc(Cl)c(Cl)c1)NC12CC(C(=O)Nc3cccnc3)(C1)C2` [Compound 295, 3-[2-(3,4-dichlorophenoxy)acetamido]-N-(pyridin-3-yl)bicyclo[1.1.1]pentane-1-carboxamide], the EC50 was below 250 nM.

Turning to `O=C(COc1ccc(Cl)c(Cl)c1)NC12CC(C(=O)Nc3ccncc3)(C1)C2` [Compound 296, 3-[2-(3,4-dichlorophenoxy)acetamido]-N-(pyridin-4-yl)bicyclo[1.1.1]pentane-1-carboxamide], the EC50 was below 250 nM.

In the case of `O=C(COc1ccc(C(F)(F)F)nc1)NC12CC(C(=O)Nc3ccc(OC(F)(F)F)cn3)(C1)C2` [Compound 297, N-[5-(trifluoromethoxy)pyridin-2-yl]-3-(2-{[6-(trifluoromethyl)pyridin-3-yl]oxy}acetamido)bicyclo[1.1.1]pentane-1-carboxamide], the EC50 is below 250 nM.

As to `O=C(COc1ccc(Cl)c(F)c1)NC12CC(C(=O)Nc3ccc(C(F)F)cn3)(C1)C2` [Compound 298, 3-[2-(4-chloro-3-fluorophenoxy)acetamido]-N-[5-(difluoromethyl)pyridin-2-yl]bicyclo[1.1.1]pentane-1-carboxamide], the EC50 was below 250 nM.

For `Cc1ccc(NC(=O)C23CC(NC(=O)COc4ccc(Cl)c(F)c4)(C2)C3)nc1` [Compound 299, 3-[2-(4-chloro-3-fluorophenoxy)acetamido]-N-(5-methylpyridin-2-yl)bicyclo[1.1.1]pentane-1-carboxamide], the EC50 is below 250 nM.

As to `O=C(COc1ccc(Cl)c(F)c1)NC12CC(C(=O)Nc3cccnc3)(C1)C2` [Compound 300, 3-[2-(4-chloro-3-fluorophenoxy)acetamido]-N-(pyridin-3-yl)bicyclo[1.1.1]pentane-1-carboxamide], the EC50 is below 250 nM.

As for `O=C(COc1ccc(Cl)c(F)c1)NC12CC(C(=O)Nc3ccncc3)(C1)C2` [Compound 301, 3-[2-(4-chloro-3-fluorophenoxy)acetamido]-N-(pyridin-4-yl)bicyclo[1.1.1]pentane-1-carboxamide], the EC50 was below 250 nM.

In the case of `COc1cnc(NC(=O)C23CC(NC(=O)COc4ccc(Cl)c(F)c4)(C2)C3)nc1` [Compound 302, 3-[2-(4-chloro-3-fluorophenoxy)acetamido]-N-(5-methoxypyrimidin-2-yl)bicyclo[1.1.1]pentane-1-carboxamide], the EC50 was in the range of 250 to 500 nM.

As for `COc1ccc(NC(=O)C23CC(NC(=O)COc4ccc(Cl)c(F)c4)(C2)C3)nc1` [Compound 303, 3-[2-(4-chloro-3-fluorophenoxy)acetamido]-N-(5-methoxypyridin-2-yl)bicyclo[1.1.1]pentane-1-carboxamide], the EC50 was 250 to 500 nM.

`Cc1cnc(NC(=O)C23CC(NC(=O)COc4ccc(Cl)c(F)c4)(C2)C3)cn1` [Compound 304, 3-[2-(4-chloro-3-fluorophenoxy)acetamido]-N-(5-methylpyrazin-2-yl)bicyclo[1.1.1]pentane-1-carboxamide]: the EC50 is below 250 nM.

As to `N#Cc1ccc(NC(=O)C23CC(NC(=O)COc4ccc(Cl)c(F)c4)(C2)C3)nc1` [Compound 305, 3-[2-(4-chloro-3-fluorophenoxy)acetamido]-N-(5-cyanopyridin-2-yl)bicyclo[1.1.1]pentane-1-carboxamide], the EC50 is below 250 nM.

`O=C(COc1ccc(Cl)c(F)c1)NC12CC(C(=O)Nc3ccc(C4CC4)cn3)(C1)C2` [Compound 306, 3-[2-(4-chloro-3-fluorophenoxy)acetamido]-N-(5-cyclopropylpyridin-2-yl)bicyclo[1.1.1]pentane-1-carboxamide]: the EC50 was below 250 nM.

In the case of `CCOc1cnc(NC(=O)C23CC(NC(=O)COc4ccc(Cl)c(F)c4)(C2)C3)cn1` [Compound 307, 3-[2-(4-chloro-3-fluorophenoxy)acetamido]-N-(5-ethoxypyrazin-2-yl)bicyclo[1.1.1]pentane-1-carboxamide], the EC50 was in the range of 250 to 500 nM.

Turning to `O=C(COc1ccc(F)c(F)c1)NC12CC(C(=O)Nc3ccc(OC(F)(F)F)cn3)(C1)C2` [Compound 308, 3-[2-(3,4-difluorophenoxy)acetamido]-N-[5-(trifluoromethoxy)pyridin-2-yl]bicyclo[1.1.1]pentane-1-carboxamide], the EC50 was below 250 nM.

In the case of `O=C(COc1ccc(Cl)c(F)c1)NC12CC(C(=O)Nc3ccc(OC(F)F)cn3)(C1)C2` [Compound 309, 3-[2-(4-chloro-3-fluorophenoxy)acetamido]-N-[5-(difluoromethoxy)pyridin-2-yl]bicyclo[1.1.1]pentane-1-carboxamide], the EC50 was below 250 nM.

On to `O=C(COc1ccc(Cl)c(F)c1)NC12CC(C(=O)Nc3ccc(OCC(F)(F)F)nc3)(C1)C2` [Compound 310, 3-[2-(4-chloro-3-fluorophenoxy)acetamido]-N-[6-(2,2,2-trifluoroethoxy)pyridin-3-yl]bicyclo[1.1.1]pentane-1-carboxamide], for which the EC50 was below 250 nM.

On to `CCOC(=O)c1ccc(NC(=O)C23CC(NC(=O)COc4ccc(Cl)c(F)c4)(C2)C3)nc1` [Compound 311, ethyl 6-({3-[2-(4-chloro-3-fluorophenoxy)acetamido]bicyclo[1.1.1]pentane-1-carbonyl}amino)pyridine-3-carboxylate], for which the EC50 lay in the range of 250 to 500 nM.

For `CCOC(=O)c1csc(NC(=O)C23CC(NC(=O)COc4ccc(Cl)c(F)c4)(C2)C3)n1` [Compound 312, ethyl 2-({3-[2-(4-chloro-3-fluorophenoxy)acetamido]bicyclo[1.1.1]pentane-1-carbonyl}amino)-1,3-thiazole-4-carboxylate], the 50% effective concentration (EC50) lay within 250 to 500 nM.

For the compound `O=C(COc1ccc(Cl)c(F)c1)NC12CC(C(=O)Nc3cc(CO)ccn3)(C1)C2` [Compound 313, 3-[2-(4-chloro-3-fluorophenoxy)acetamido]-N-[4-(hydroxymethyl)pyridin-2-yl]bicyclo[1.1.1]pentane-1-carboxamide], the EC50 was 1000 to 2000 nM.

Regarding `O=C(COc1ccc(Cl)c(F)c1)NC12CC(C(=O)Nc3ccccc3F)(C1)C2` [Compound 314, 3-[2-(4-chloro-3-fluorophenoxy)acetamido]-N-(2-fluorophenyl)bicyclo[1.1.1]pentane-1-carboxamide], the EC50 lay in the range of 500 to 1000 nM.

In the case of `O=C(NC12CC(C(=O)Nc3ccc(OC(F)(F)F)cn3)(C1)C2)c1ccc(OC(F)(F)F)cn1` [Compound 315, 5-(trifluoromethoxy)-N-(3-{[5-(trifluoromethoxy)pyridin-2-yl]carbamoyl}bicyclo[1.1.1]pentan-1-yl)pyridine-2-carboxamide], the EC50 was in the range of 500 to 1000 nM.

Regarding `O=C(COc1ccc(Cl)c(F)c1)NC12CCC(C(=O)Nc3ccc(C(F)(F)F)cn3)(CC1)C(O)C2` (stereo not drawn) [Compound 316, 4-[2-(4-chloro-3-fluorophenoxy)acetamido]-2-hydroxy-N-[5-(trifluoromethyl)pyridin-2-yl]bicyclo[2.2.2]octane-1-carboxamide], the EC50 fell in the range of 500 to 1000 nM.

With `CC(O)(CNC(=O)C12CC(NC(=O)COc3ccc(Cl)c(F)c3)(C1)C2)c1ccc(Cl)cc1` (stereo not drawn) [Compound 317, 3-[2-(4-chloro-3-fluorophenoxy)acetamido]-N-[2-(4-chlorophenyl)-2-hydroxypropyl]bicyclo[1.1.1]pentane-1-carboxamide], the EC50 lay in the range of 1000 to 2000 nM.

Regarding `O=C(COc1ccc(Cl)c(F)c1)NC12CC(C(=O)NC(CO)c3ccc(Cl)cc3)(C1)C2` (stereo not drawn) [Compound 318, 3-[2-(4-chloro-3-fluorophenoxy)acetamido]-N-[1-(4-chlorophenyl)-2-hydroxyethyl]bicyclo[1.1.1]pentane-1-carboxamide], the EC50 is above 2000 nM.

In the case of `O=C(COc1ccc(Cl)c(F)c1)NC12CCC(C(=O)NCc3nc4cc(F)c(F)cc4[nH]3)(CC1)CC2O` (stereo not drawn) [Compound 319, 4-[2-(4-chloro-3-fluorophenoxy)acetamido]-N-[(5,6-difluoro-1H-benzimidazol-2-yl)methyl]-3-hydroxybicyclo[2.2.2]octane-1-carboxamide], the EC50 is below 250 nM.

As for `NC(=O)CN(Cc1ccc(Cl)c(F)c1)C(=O)C12CCC(NC(=O)COc3ccc(Cl)c(F)c3)(CC1)CC2` [Compound 320, N-(2-amino-2-oxoethyl)-4-[2-(4-chloro-3-fluorophenoxy)acetamido]-N-[(4-chloro-3-fluorophenyl)methyl]bicyclo[2.2.2]octane-1-carboxamide], the EC50 is 500 to 1000 nM.

On to `COc1ccc(CNC(=O)C23CCC(NC(=O)COc4ccc(Cl)c(F)c4)(CC2)C(O)C3)nn1` (stereo not drawn) [Compound 321, 4-[2-(4-chloro-3-fluorophenoxy)acetamido]-3-hydroxy-N-[(6-methoxypyridazin-3-yl)methyl]bicyclo[2.2.2]octane-1-carboxamide], for which the EC50 was above 2000 nM.

With `COc1ccc(CNC(=O)C23CC(NC(=O)COc4ccc(Cl)c(F)c4)(C2)C3)nn1` [Compound 322, 3-[2-(4-chloro-3-fluorophenoxy)acetamido]-N-[(6-methoxypyridazin-3-yl)methyl]bicyclo[1.1.1]pentane-1-carboxamide], the EC50 was above 2000 nM.

On to `Cn1c(CNC(=O)C23CCC(NC(=O)COc4ccc(Cl)c(F)c4)(CC2)CC3)nc2cc(F)ccc21` [Compound 323, 4-[2-(4-chloro-3-fluorophenoxy)acetamido]-N-[(5-fluoro-1-methyl-1H-benzimidazol-2-yl)methyl]bicyclo[2.2.2]octane-1-carboxamide], for which the EC50 was below 250 nM.
